Assay results published in patent US20130085133A1, “ANTI-VIRAL TREATMENT AND ASSAY TO SCREENFOR ANTI-VIRAL AGENT” (Sourthern Research Institute Office of Commercialization …, priority 2010, published 2013).

What was measured:
RSV, Long strain = assay: virus titer Reduction (VTR) assay, progeny virus TCID50 in HEp-2 cells; type: cell-based, respiratory syncytial virus (RSV); settings: human respiratory syncytial virus, 48 h; for log reduction at 5 µg/mL: 5 ug/ml compound, read-out: TCID-50 Reduction @ 5 ug/ml; for log reduction at 12 µg/mL: 12 ug/ml compound, read-out: TCID-50 Reduction 12 @ ug/ml; for log reduction at 25 µg/mL: 25 ug/ml compound, read-out: TCID-50 Reduction 25 @ ug/ml; for log reduction at 3 µg/mL: 3 ug/ml compound, read-out: TCID-50 Reduction @ 3 ug/ml; for log reduction at 6 µg/mL: 6 ug/ml compound, read-out: TCID-50 Reduction 6 @ ug/ml
Description: Four concentrations of each compound were evaluated (Table 3). Briefly, the four concentrations of test compounds, HEp-2 cells (8×10^3 per well) and RSV, Long strain (MOI=0.9) were plated in 96 well microtiter plates. The plates were incubated for 48 hours. Fifteen (15) μl of 10-fold serial dilution of progeny virus containing medium from respective samples (test compound treated or untreated) was transferred to infect fresh HEp-2 cells (2×10^3 cells per well) in a 384 well format. Plates were incubated for an additional 6 days and luminescence was measured using Cell Titer-Glo reagent (Promega Inc.) to determine cell viability. […] A well showing lesser than 50% cell viability was regarded as positive for virus infection. Four replicates for each virus dilution were analyzed and the number of virus positive wells (out of 4) was plotted versus the dilution. TCID50 was calculated to be the dilution that produced two positive wells out of four using ActivityBase software (IDBS, Inc, Guilford, UK).

[1] = system: respiratory syncytial virus (RSV) strain Long; assay: microbe, parasite or virus in culture; settings: human respiratory syncytial virus, HEp-2, 144 h
Description: The assay measures RSV virus-induced CPE in HEp-2 cells using cell viability as the end point.
Two vials of RSV (strain Long) containing 1×10^7 pfu/mL was thawed using an Eppendorf thermomixer for 13 min at 15° C., with shaking at 350 rpm. […] The cells were incubated for 18-20 h at 37° C., 5% CO2, 90% relative humidity. The medium was aspirated and the cells washed with 10 mL PBS without Mg^2+ or Ca^2+. Cells were harvested from flasks using 0.25% trypsin-EDTA. The cells were resuspended in a freezing medium of 95% fetal calf serum and 5% DMSO to a final cell density of 2×10^6 cells/mL. One mL aliquots of this virus infected cell suspension were dispensed to cryovials and cells were rate frozen to −80° C. Frozen infected cells were then transferred to −150° C. for long term storage.
(§1) Test compounds were evaluated by measuring their antiviral activity, cell toxicity, and selectivity. Test compounds were serially diluted in a plate to plate matrix or “stacked plate” matrix. All 320 compounds in a source plate were diluted together resulting in a 10 point dose response dilution series. It was visualized as a serial dilution series proceeding vertically through a stack of plates with the high dose plate on top and the low dose plate on the bottom.
Cells were harvested and resuspended to 80,000 cells per ml in Complete DMEM/F12.
Cells were thawed in a room temperature water bath with gentle agitation. The tube was inverted 5-10. Cells were diluted to 80,000 cells per ml by adding the contents of the vial to 24 ml of cold (4° C.) media.
Twenty five ul of uninfected HEp-2 cells were plated in the cell control wells. Frozen infected cells were combined with uninfected HEp-2 cells at a 1:100 ratio. Twenty five ul of the cell mixture was added to the virus control and compound wells. All cell plating was conducted using a Matrix WellMate and cells were maintained at room temperature with stirring during the plating process. The assay plates were incubated for six days at 37° C., 5% CO2 and 90% relative humidity.
(§2) Following the six day incubation period, the assay plates were equilibrated to room temperature for 30 min and an equal volume (30 μL) of Cell Titer-Glo reagent (Promega Inc.) was added to each well using a WellMate (Matrix, Hudson, N.H.) and plates were incubated for an additional 10 min at room temperature. At the end of the incubation, luminescence was measured using a Perkin Elmer Envision™ multi-label reader (PerkinElmer, Wellesley, Mass.) with an integration time of 0.1 s.
(§3) Data was analyzed using ActivityBase software (IDBS, Inc, Guilford, UK). thirty two control wells containing cells only and twenty four wells containing cells and virus were included on each assay plate and used to calculate Z′ value for each plate and to normalize the data on a per plate basis. […] Eight ribavirin positive control wells were included on each plate for quality control purposes, but were not used in Z′ calculations. […] In the toxicity assay, results are described as percent viability and the calculation is the same.
(§4) An EC50 (for CPE inhibition) and IC50 (for cell viability) were calculated for each substance using the 4 parameter Levenburg-Marquardt algorithm with parameter A locked at 0 and parameter B locked at 100. Standard deviation, normalized chi2 and hill slope were used to evaluate the curves. Values were not extrapolated beyond the tested range of concentrations.

[2] = cytotoxicity assay (percent viability of HEp-2 cells, Cell Titer-Glo); settings: human, HEp-2 cells
Description: as §1, §2, §3, §4

Compound	EC50 [1]	log reduction at 5 µg/mL (RSV, Long strain)	log reduction at 12 µg/mL (RSV, Long strain)	log reduction at 25 µg/mL (RSV, Long strain)	log reduction at 50 µg/mL (RSV, Long strain; 50 ug/ml compound, read-out: TCID-50 Reduction @ 50 ug/ml)	CC50 at 6 days [2]	log reduction at 3 µg/mL (RSV, Long strain)	log reduction at 6 µg/mL (RSV, Long strain)
CC1(C)O[C@@H]2[C@H](O1)[C@@H](CO)O[C@H]2n1ncc(=O)[nH]c1=O [AB00174524]	3.25 µM	4.58	5.98	5.56	5.87	> 50 µM		
CCCSC1=C(C#N)C(c2ccco2)C(C(=O)Nc2ccccc2)=C(C)N1 (stereo not drawn) [AB00276073]	5.12 µg/mL		1.39	3.57		> 25 µg/mL	1	0.63
CC1=Nc2ccc(C)c3nc(C)cc(c23)N1c1ccc(C)cc1 [AB00280244]	8.62 µg/mL		1.55	2.89		> 25 µg/mL	1.55	1.36
O=C(Nc1ccc(Nc2ccccc2)cc1)c1ccccc1Cl [AB00280499]	6.6 µg/mL		3.69	2.96		> 25 µg/mL	2.55	2.38
CCOC(=O)Cc1nnc(Nc2ccc(C)cc2)c2ccccc12 [AB00285095]	9.72 µg/mL		1.99	2.56		> 25 µg/mL	1	1.32
O=C(CCSc1ccccc1)Nc1ccccc1C(=O)O [AB00289457]	2.97 µg/mL		6.73	6.57		> 25 µg/mL	1	4.9
Cc1cccc(N2C(=O)CC(Cc3ccc(Cl)cc3)C2=O)c1Cl (stereo not drawn) [AB00292352]	8.56 µg/mL	2.31	3.82	5.9		> 25 µg/mL	1.22	

More lines, main results first:

EC50 [1]	Compound	log reduction at 5 µg/mL (RSV, Long strain)	log reduction at 12 µg/mL (RSV, Long strain)	log reduction at 25 µg/mL (RSV, Long strain)	log reduction at 50 µg/mL (RSV, Long strain; 50 ug/ml compound, read-out: TCID-50 Reduction @ 50 ug/ml)	CC50 at 6 days [2]	log reduction at 3 µg/mL (RSV, Long strain)	log reduction at 6 µg/mL (RSV, Long strain)
8.34 µg/mL	COc1ccc(C(=O)Nc2ccc3c(c2)OCCO3)c(OC)c1 [AB00296320]		2.9	4.66		> 25 µg/mL	1.55	1.38
4.88 µg/mL	CCCn1c(COc2ccccc2OC)nc2ccccc21 [AB00296415]	2.48	2.59	5.9		> 25 µg/mL	1.74	
3.14 µg/mL	CCCn1cnc2sc(-c3ccccc3)cc2c1=O [AB00298501]		2.9	3.78		> 25 µg/mL	1.82	2.38
9.01 µg/mL	CC(=O)N(CCCCN1C(=O)c2ccccc2C1=O)c1ccc(C)cc1 [AB00300194]	1.83	2.04	2.56		> 25 µg/mL	1.41	
2.53 µg/mL	Cc1ccc(N(CCCCN2C(=O)c3ccccc3C2=O)C(=O)c2cccc([N+](=O)[O-])c2)cc1 [AB00301184]		1.9	1.88		> 25 µg/mL	1.53	1.67
2.01 µg/mL	O=C1c2ccccc2C(=O)N1CCCCN(C(=O)c1cccc([N+](=O)[O-])c1)c1ccc(Cl)cc1 [AB00301782]		1.42	0.87		> 25 µg/mL	1.55	1.64
3.4 µg/mL	O=C1c2ccccc2C(=O)N1CCCCN(C(=O)c1ccco1)c1ccc(Cl)cc1 [AB00302018]		2.68	3.07		> 25 µg/mL	1.66	2.64
5.86 µg/mL	O=C(NCCSCc1c(F)cccc1Cl)c1cccc([N+](=O)[O-])c1 [AB00306112]		1.68	2.88		> 25 µg/mL	1.85	1.38
6.41 µg/mL	Cc1sc(NC(=O)c2c(F)cccc2F)nc1-c1ccccc1 [AB00309154]		1.42	1.88		> 25 µg/mL	1.54	1.38
6.31 µg/mL	Cc1ccc(-c2csc(N)c2C(N)=O)cc1C [AB00310739]		1.9	2.39		> 25 µg/mL	1.03	1.86
7.72 µg/mL	COC(=O)c1c(-c2ccccc2)csc1NC(=O)c1ccccc1Cl [AB00311298]		1.9	1.88		> 25 µg/mL	1.53	1.86
